Laboratory results published in patent publication US20030105014A1, “Screening assay for the identification of inhibitors of macrophage migration inhibitory factor” (priority 1996, published 2003).
Each block holds one molecule with its values, some of them ahead of it.

Experiments:
[1] = biological target: T1, MIF (Homo sapiens, UniProt P14174); test: MIF dopachrome tautomerase activity assay with Compound 1b as MIF-substrate; assay type: biochemical; conditions: test compound used in place of the MIF-substrate
T1 construct: made in house; host or cells: E. coli BL21(DE3), pET11b (inferred from Section 6; the Section 8 text says only 'recombinant')
T1 sequence (P14174 2-115 limits assumed): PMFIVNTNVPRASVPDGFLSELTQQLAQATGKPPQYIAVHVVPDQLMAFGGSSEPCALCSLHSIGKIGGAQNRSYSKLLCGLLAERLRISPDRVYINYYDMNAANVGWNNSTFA
Source text: The general method of performing an assay for MIF dopachrome tautomerase activity, described in more detail below, begins with the oxidation of a percursor of the MIF-substrate (e.g., DOPA-related Compound 1a [L-3-(3,4-dihydroxyphenyl) alanine methyl ester] above) and, if required, the similar oxidation of precursors of the test inhibitors (e.g., the DOPA-related Compounds 2a [L-3-(3,4-dihydroxyphenyl)-2-methyl alanine], 3a [D/L-3-(3,4-dihydroxyphenyl)-2-methyl alanine], 4a [L-3-(3,4-dihydroxyphenyl)-2-methyl alanine methyl ester] and 5a [D/L-3-(3,4-dihydroxyphenyl)-2 methyl alanine methyl ester] above). This oxidation of each precursor compound with sodium periodate generates the corresponding orange-colored dopachrome derivative; specifically, a preferred MIF-substrate (Compound 1B above) and the test inhibitors (Compounds 2b, 3b, 4b, and 5b above). Upon addition of MIF, the MIF-substrate (Compound 1b [L-3,5-dihydro-6-hydroxy-5-oxo-2H-indole-2-carboxylic acid methyl ester]) undergoes tautomerization resulting in a colorless product. In the presence of the test inhibitors (Compounds 2b, 3b, 4b, and 5b), decolorization of MIF-substrate (Compound 1b) was retarded. Test compounds 2b, 3b, 4b, and 5b themselves were unreactive in this tautomerization reaction; that is, they were not tautomerized and correspondingly decolorized by MIF dopachrome tautomerase activity if they were substituted for the MIF-substrate in this assay method.
In a preferred MIF dopachrome tautomerase activity assay procedure, the DOPA-related precursors (Compounds 1a, 2a, 3a, 4a, and 5a above) are prepared as 10 mM stock solutions in Assay Buffer (10 mM sodium phosphate, pH 6.0). About 10 minutes before the tautomerization assay, 1.0 ml of each stock solution was diluted with 8 ml of Assay Buffer, and 1.0 ml of sodium periodate stock solution (20 mM in water) was added to initiate the oxidation of the diluted precursors, thus generating each respective dopachrome derivative (i.e., Compounds 1b, 2b, 3b, 4b, and 5b) at a final concentration of 1 mM. To perform the actual tautomerization assay, 0.5 ml of the 1 mM solution of the MIF-substrate (i.e., Compound 1b) was mixed with 0.5 ml of Assay Buffer (no inhibitor control reaction) or 0.5 ml of the 1 mM dilution of the test inhibitor (e.g., Compounds 2b, 3b, 4b, or 5b), followed by addition of 10 μl of recombinant […] solution from a 20 μg/ml stock.

[2] = biological target: recombinant human MIF (Homo sapiens, UniProt P14174); test: biochemical; conditions: read-out: % Inhibition of MIF tautomerase activity
[3] = test system: RAW 264.7 macrophages; test: MIF-induced nitric oxide production in macrophages (Griess reagent); assay type: cell-based, murine; conditions: 1 μg/ml, IFN-γ-primed RAW 264.7 macrophages
Experimental: Nitric oxide (NO) production was quantitated in MIF-conditioned RAW 264.7 and thioglycollate-elicited peritoneal exudate macrophage supernatants by measuring nitrite and nitrate content with the Griess reagent. RAW 264.7 macrophages were prepared and conditioned as described above. In some experiments, cells were incubated for 1 h with recombinant murine interferon-γ (IFN-γ) (100 IU/ml) (Boehringer-Mannheim, Indianapolis, Ind.) prior to the addition of MIF. Thioglycollate-elicited peritoneal exudate macrophages were obtained from BALB/c mice that were injected intra-peritoneally 3-4 days previously with 2 ml of sterile thioglycollate broth. Cells were harvested under strict aseptic conditions by lavage of the peritoneal cavity with 5 ml of an ice-chilled 11.6% sucrose solution. After centrifugation (10 min at 800 g), cells were resuspended in RPMI/10% FBS and plated at a density of 2×10^6 cells/ml. After 3 h of incubation, non-adherent cells (i.e. PMNs, lymphocytes) were removed with RPMI/1% FBS and the remaining adherent cells conditioned with MIF as described for RAW 264.7 cells. Trace concentrations of contaminating LPS were neutralized by incubating MIF (1 and 10 μg/ml in cell culture media) with polymyxin B at a concentration of 10 and 100 ng/ml, respectively, for 30 min at room temperature under sterile conditions. […]

[4] = test system: RAW 264.7 macrophages; test: MIF-induced secretion of TNFα by mouse macrophages (L929 cell cytotoxicity readout); assay type: cell-based, murine
Experimental: TNFα production was quantitated in MIF-conditioned RAW 264.7 macrophage supernatants by L929 cell cytotoxicity as described previously (Wolpe et al., 1988, J. Exp. Med. 167: 570). RAW 264.7 macrophages were resuspended in RPMI/10% FBS, plated at 1×10^6 cells/ml, incubated for 3 hours at 37° C. in a humidified atmosphere with 5% CO2, and washed twice with RPMI/1% FBS. Cells were incubated for 12-14 hours with various doses of MIF diluted in RPMI/1% FBS. At the end of each experiment, cell culture media were collected, centrifuged (10 min at 800 g), and supplemented with 1 mM PMSF. MIF-induced TNFα activity was measured immediately afterwards.

[5] = Tautomerase activity of altered or glycated MIF proteins; assay type: biochemical
Experimental: A 1 mM solution of L-DOPA methyl ester was prepared in Reaction Buffer (10 mM sodium phosphate, pH 6, containing 0.5 mM EDTA). L-DOPA methyl ester was oxidized to colored L-dipachrome methyl ester by adding 10% (v/v) of a 20 mM aqueous solution of potassium periodate, following a 1:2 dilution with Reaction Buffer.
The test compound, reduced glutathione, was added in concentrations of 0.1 mM, 0.5 mM, 1.0 mM, and 2.0 mM to separate cuvettes containing the substrate solution. Approximately 100 ng of purified recombinant human MIF was added to each cuvette. […]
Purified recombinantly-produced human MIF protein was glycated by incubation in aqueous buffer in the presence of 0.5 M glucose, typically for 6 weeks in the dark at 37° C. under a nitrogen atmosphere to ensure complete glycation of susceptible residues (although other spontaneous glycation conditions will serve to glycate the protein without departing from the essence of the invention) and tested for D-dopachrome tautomerase activity by the method of Section 7 or Section 8. […] The AGE-MIF was recovered and analyzed by matrix-assisted laser desorption ionization mass spectroscopy and determined to have a mass consistent with three-fold Amadori product modification of the protein; that is, there was a mass excess of approximately 3×162 (the mass excess of a single Amadori product). […]

Molecule: CC1(C(=O)O)CC2=CC(=O)C(O)=CC2=N1 [Compound 3b, D/L-3,5-dihydro-6-hydroxy-2-methyl-5-oxo-2H-indole-2-carboxylic acid]
Tautomerization by MIF when substituted for the MIF-substrate [1]: unreactive

B1: rhuMIF: recombinant human MIF expressed in E. coli from pET11b, native amino-terminus (protein, UniProt P14174 2-115, looked up)
Macrophage migration …: T1 sequence (P14174 2-115 limits assumed)
NO production activity relative to rmuMIF [3]: approximately 4 fold
Secretion of TNFα induced by MIF ([4]; MIF 0.1 μg/ml): 2.9 ± 2.4 ng/mL
Secretion of TNFα induced by MIF ([4]; MIF 1 μg/ml): 3.4 ± 2.8 ng/mL
Secretion of TNFα induced by MIF ([4]; MIF 10 μg/ml): 3.9 ± 2.8 ng/mL
MIF tautomerase activity of expressed protein ([5]; protein expressed in E. coli): highly active

B2: AGE-MIF: recombinant human MIF glycated by incubation with 0.5 M glucose; three-fold Amadori product modification (protein, UniProt P14174 2-115, looked up)
Macrophage migration …: T1 sequence (P14174 2-115 limits assumed)
modifications: advanced glycation end-product modified
D-dopachrome tautomerase activity of glycated MIF ([5]; human MIF incubated with 0.5 M glucose, typically 6 weeks at 37° C., method of Section 7 or Section 8): no D-dopachrome tautomerase activity

The next lines start with the values.

Tautomerization by MIF when substituted for the MIF-substrate [1]: unreactive
Molecule: CC1(C(=O)O)CC2=CC(=O)C(O)=CC2=N1 [Compound 2b, L-3,5-dihydro-6-hydroxy-2-methyl-5-oxo-2H-indole-2-carboxylic acid]

Tautomerization by MIF when substituted for the MIF-substrate [1]: unreactive
Molecule: COC(=O)C1(C)CC2=CC(=O)C(O)=CC2=N1 [Compound 4b, L-3,5-dihydro-6-hydroxy-2-methyl-5-oxo-2H-indole-2-carboxylic acid methyl ester]

Tautomerization by MIF when substituted for the MIF-substrate [1]: unreactive
Molecule: COC(=O)C1(C)CC2=CC(=O)C(O)=CC2=N1 [Compound 5b, D/L-3,5-dihydro-6-hydroxy-2-methyl-5-oxo-2H-indole-2-carboxylic acid methyl ester]

inhibition at 100 µM [2]: 14%
inhibition at 500 µM [2]: 69%
inhibition at 1000 µM [2]: 95%
inhibition at 2000 µM [2]: 100%
Molecule: N[C@@H](CCC(=O)N[C@@H](CS)C(=O)NCC(=O)O)C(=O)O [Glutathione, glutathione]
